This note sets out measurements from ChEMBL document CHEMBL5137046, “Discovery of novel 2,3-dihydro-1H-inden-1-ones as dual PDE4/AChE inhibitors with more potency against neuroinflammation for the treatment of Alzheimer's disease” (Eur J Med Chem, 2022).

Data set [1] addresses T1, 3',5'-cyclic-AMP phosphodiesterase 4D (Homo sapiens, UniProt Q08499). Put plainly: Inhibition of PDE4D7 (unknown origin).
Data set [2] has as its target Acetylcholinesterase (Electrophorus electricus) (UniProt O42275). Description: Inhibition of electric eel AChE using acetylthiocholine iodide as substrate at 10 uM preincubated with enzyme for 20 mins followed by substrate addition and measured after 10 mins by Ellman's method. Conditions: time 30.0 min.
Data set [3] has as its target T1, 3',5'-cyclic-AMP phosphodiesterase 4D. Description: Inhibition of PDE4D7 (unknown origin) at 10 uM.
For data set [4], the system named is PC-12. Description: Neuroprotective activity against rat PC-12 cells assessed as inhibition of Abeta(25-35)-induced cytotoxicity by measuring increase in cell viability at 10 uM incubated for 24 hrs by MTT assay. It counts as functional, cell-based.
Data set [5] addresses Acetylcholinesterase (Electrophorus electricus, UniProt O42275). Description: Inhibition of electric eel AChE using acetylthiocholine iodide as substrate preincubated with enzyme for 20 mins followed by substrate addition and measured after 10 mins by Ellman's method.
Data set [6] deals with Cholinesterase (Equus caballus, UniProt P81908). Description: Inhibition of horse serum BuChE using butyrylthiocholine iodide as substrate preincubated with enzyme for 20 mins followed by substrate addition and measured after 10 mins by Ellman's method. It counts as cell-free.
The subject of data set [7] is BV-2. Put plainly: Anti-neuroinflammatory activity against LPS-stimulated mouse BV-2 cells assessed as reduction in TNF-alpha production at 20 uM pretreated for 1 hr with compound followed by LPS treatment for 24 hrs by ELISA. Conditions: time 25.0 hrs. It counts as functional, cell-based.
Data set [8] deals with Dual specificity calcium/calmodulin-dependent 3',5'-cyclic nucleotide phosphodiesterase 1A (Homo sapiens, UniProt P54750). Description: Inhibition of PDE1A (unknown origin).
Data set [9] has as its target High affinity cAMP-specific and IBMX-insensitive 3',5'-cyclic phosphodiesterase 8A (Homo sapiens, UniProt O60658). Put plainly: Inhibition of PDE8A1 (unknown origin).
Data set [10] in a line: Inhibition of […] (unknown origin). Set-up: species or system Homo sapiens.
The target in data set [11] is Acetylcholinesterase (Electrophorus electricus) (UniProt O42275). Description: Potency index, ratio of donepezil IC50 to test compound IC50 for inhibition of electric eel AChE using acetylthiocholine iodide as substrate preincubated with enzyme for 20 mins followed by substrate addition and measured after 10 mins by Ellman's method. Conditions: time 30.0 min.
Data set [12] relates to BV-2. Put plainly: Cytotoxicity against mouse BV-2 cells assessed as reduction in cell viability at 20 uM by MTT assay. Conditions: bv-2, 20 µM. It counts as toxicity, cell-based.
Data set [13] concerns the target High affinity 3',5'-cyclic-AMP phosphodiesterase 7A (Homo sapiens, UniProt Q13946). Put plainly: Inhibition of PDE7A (unknown origin).
Data set [14] addresses cGMP-specific 3',5'-cyclic phosphodiesterase (Homo sapiens, UniProt O76074). Description: Inhibition of PDE5A (unknown origin).
The subject of data set [15] is BV-2. Description: Anti-neuroinflammatory activity against LPS-stimulated mouse BV-2 cells assessed as reduction in TNF-alpha production pretreated for 1 hr with compound followed by LPS treatment for 24 hrs by ELISA. The class given is functional, cell-based. The following applies: dose 5-20 µM, time 25.0 hrs, DDE = dose-dependent effect.
In data set [16] the test system is Mus musculus. Put plainly: Anti-neuroinflammatory activity against aggregated Abeta(25-35)-induced Alzheimer's disease C57BL/6 mouse model assessed as inhibition of TNF-alpha production in hippocampus at 2 mg/kg, iv measured after 2 hrs by ELISA. It counts as functional, organism-based.
In data set [17] the test system is PC-12. Description: Neuroprotective activity against rat PC-12 cells assessed as inhibition of Abeta(25-35)-induced cytotoxicity by measuring increase in cell viability at 10 to 20 uM incubated for 24 hrs by MTT assay. The class given is functional, cell-based. The following applies: dose 10-20 µM.
Data set [18] deals with cGMP-inhibited 3',5'-cyclic phosphodiesterase 3B (Homo sapiens, UniProt Q13370). Description: Inhibition of PDE3B (unknown origin).
Data set [19] can be described thus: Neurotoxicity against rat PC-12 cells assessed as reduction in cell viability up to 20 uM incubated for 24 hrs by MTT assay. The class given is toxicity, cell-based. Conditions: pc-12, 24 h.
In data set [20] the target is cGMP-dependent 3',5'-cyclic phosphodiesterase (Homo sapiens, UniProt O00408). Put plainly: Inhibition of PDE2A (unknown origin).
For data set [21], the target named is High affinity cGMP-specific 3',5'-cyclic phosphodiesterase 9A (Homo sapiens, UniProt O76083). Put plainly: Inhibition of PDE9A2 (unknown origin).
For data set [22], the system named is Mus musculus. Description: In vivo inhibition of AChE in hippocampus of aggregated Abeta(25-35)-induced Alzheimer's disease C57BL/6 mouse model at 2 mg/kg, iv measured after 2 hrs by Ellman's method. It counts as functional, organism-based.
Data set [23] addresses Acetylcholinesterase (Electrophorus electricus) (UniProt O42275). Description: Inhibition of electric eel AChE using acetylthiocholine iodide as substrate at 1 uM preincubated with enzyme for 20 mins followed by substrate addition and measured after 10 mins by Ellman's method. Conditions: time 30.0 min.
Data set [24] deals with Mus musculus. Put plainly: Anti-neuroinflammatory activity against aggregated Abeta(25-35)-induced Alzheimer's disease C57BL/6 mouse model assessed as inhibition of TNF-alpha production in hippocampus at 1 mg/kg, iv measured after 2 hrs in presence of 1 mg/kg, iv rolipram by ELISA. The class given is functional, organism-based.

Molecules are shown by their SMILES. Active and inactive are the calls of the source. The calls are words filed in the database; no cut-off is given here.

Sequence of Acetylcholinesterase (O42275 whole entry): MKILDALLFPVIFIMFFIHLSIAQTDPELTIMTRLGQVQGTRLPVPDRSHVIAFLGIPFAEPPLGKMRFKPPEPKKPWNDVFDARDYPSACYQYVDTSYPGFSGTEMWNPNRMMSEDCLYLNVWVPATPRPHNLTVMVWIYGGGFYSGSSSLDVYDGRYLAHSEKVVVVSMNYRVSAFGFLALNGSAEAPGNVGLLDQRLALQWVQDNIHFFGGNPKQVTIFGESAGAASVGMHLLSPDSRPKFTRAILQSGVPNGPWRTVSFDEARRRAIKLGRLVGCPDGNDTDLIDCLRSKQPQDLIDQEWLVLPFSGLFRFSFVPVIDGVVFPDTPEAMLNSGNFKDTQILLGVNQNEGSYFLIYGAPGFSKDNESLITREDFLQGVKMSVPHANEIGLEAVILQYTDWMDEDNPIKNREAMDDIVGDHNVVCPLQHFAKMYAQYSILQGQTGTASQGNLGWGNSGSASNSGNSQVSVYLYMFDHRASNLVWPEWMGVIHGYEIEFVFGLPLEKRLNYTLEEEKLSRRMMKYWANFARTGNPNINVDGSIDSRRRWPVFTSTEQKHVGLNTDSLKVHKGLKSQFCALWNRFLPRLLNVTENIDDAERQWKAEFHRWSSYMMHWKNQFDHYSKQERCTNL
Sequence of Acetylcholinesterase (Electrophorus electricus) (O42275 24-633 limits assumed): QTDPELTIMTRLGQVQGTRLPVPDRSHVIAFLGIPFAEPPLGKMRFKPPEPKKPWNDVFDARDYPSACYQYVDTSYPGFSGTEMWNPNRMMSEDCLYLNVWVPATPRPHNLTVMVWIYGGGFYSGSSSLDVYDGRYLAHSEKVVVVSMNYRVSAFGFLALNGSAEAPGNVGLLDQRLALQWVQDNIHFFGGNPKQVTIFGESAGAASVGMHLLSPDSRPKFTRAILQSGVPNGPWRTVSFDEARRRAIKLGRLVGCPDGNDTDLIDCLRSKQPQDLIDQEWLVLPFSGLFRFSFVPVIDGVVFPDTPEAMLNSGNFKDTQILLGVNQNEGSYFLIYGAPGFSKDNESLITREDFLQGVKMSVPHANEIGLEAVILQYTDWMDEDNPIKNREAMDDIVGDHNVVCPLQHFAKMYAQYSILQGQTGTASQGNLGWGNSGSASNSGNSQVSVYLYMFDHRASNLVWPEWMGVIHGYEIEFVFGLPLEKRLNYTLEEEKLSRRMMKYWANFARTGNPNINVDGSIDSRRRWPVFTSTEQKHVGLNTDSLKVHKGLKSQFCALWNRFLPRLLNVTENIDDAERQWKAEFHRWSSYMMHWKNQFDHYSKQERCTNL
T1 sequence (Q08499 whole entry): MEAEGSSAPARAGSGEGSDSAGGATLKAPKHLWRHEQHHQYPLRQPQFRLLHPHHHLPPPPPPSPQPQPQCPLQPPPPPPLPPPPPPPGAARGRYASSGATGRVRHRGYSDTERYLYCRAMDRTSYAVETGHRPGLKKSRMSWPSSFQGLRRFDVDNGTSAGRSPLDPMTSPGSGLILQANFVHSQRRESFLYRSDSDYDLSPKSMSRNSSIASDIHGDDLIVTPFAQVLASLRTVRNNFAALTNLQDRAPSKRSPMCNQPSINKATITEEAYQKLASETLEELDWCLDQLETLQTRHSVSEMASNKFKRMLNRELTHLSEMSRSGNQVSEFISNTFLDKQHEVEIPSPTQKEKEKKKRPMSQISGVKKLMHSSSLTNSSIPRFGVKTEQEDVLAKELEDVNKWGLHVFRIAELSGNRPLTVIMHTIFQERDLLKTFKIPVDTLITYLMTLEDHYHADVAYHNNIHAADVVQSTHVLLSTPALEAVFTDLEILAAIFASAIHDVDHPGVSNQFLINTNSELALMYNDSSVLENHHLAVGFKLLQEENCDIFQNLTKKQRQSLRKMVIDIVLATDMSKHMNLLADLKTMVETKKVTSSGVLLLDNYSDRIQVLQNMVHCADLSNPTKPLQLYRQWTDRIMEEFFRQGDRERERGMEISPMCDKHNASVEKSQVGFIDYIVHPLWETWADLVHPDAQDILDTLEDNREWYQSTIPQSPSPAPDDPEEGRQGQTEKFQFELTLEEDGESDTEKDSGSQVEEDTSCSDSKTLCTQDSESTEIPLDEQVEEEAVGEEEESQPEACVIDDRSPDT
Sequence of cGMP-dependent 3',5'-cyclic phosphodiesterase (O00408 whole entry): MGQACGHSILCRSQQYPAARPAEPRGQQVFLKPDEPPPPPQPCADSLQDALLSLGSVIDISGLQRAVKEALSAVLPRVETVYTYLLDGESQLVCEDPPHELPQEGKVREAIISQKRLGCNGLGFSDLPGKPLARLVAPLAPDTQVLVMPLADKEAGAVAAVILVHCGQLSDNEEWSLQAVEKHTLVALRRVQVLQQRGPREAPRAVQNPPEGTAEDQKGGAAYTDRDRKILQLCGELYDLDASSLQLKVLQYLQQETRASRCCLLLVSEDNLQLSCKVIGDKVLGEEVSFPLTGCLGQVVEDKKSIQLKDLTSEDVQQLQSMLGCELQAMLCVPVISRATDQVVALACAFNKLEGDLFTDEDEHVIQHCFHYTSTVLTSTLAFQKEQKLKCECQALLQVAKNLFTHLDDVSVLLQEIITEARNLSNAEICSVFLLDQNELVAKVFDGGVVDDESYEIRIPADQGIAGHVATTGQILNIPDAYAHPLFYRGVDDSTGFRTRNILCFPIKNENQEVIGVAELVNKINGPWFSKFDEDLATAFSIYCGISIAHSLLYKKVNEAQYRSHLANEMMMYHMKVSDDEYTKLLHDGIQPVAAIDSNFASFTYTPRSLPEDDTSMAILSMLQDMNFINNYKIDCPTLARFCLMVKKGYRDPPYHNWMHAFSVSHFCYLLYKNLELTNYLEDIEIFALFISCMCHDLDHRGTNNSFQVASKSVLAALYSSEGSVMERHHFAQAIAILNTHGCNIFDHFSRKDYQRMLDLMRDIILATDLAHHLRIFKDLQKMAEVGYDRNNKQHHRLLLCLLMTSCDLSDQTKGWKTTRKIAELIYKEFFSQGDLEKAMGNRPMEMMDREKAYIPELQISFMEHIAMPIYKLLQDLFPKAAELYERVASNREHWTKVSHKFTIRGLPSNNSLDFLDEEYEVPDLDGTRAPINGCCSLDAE
Sequence of Dual specificity calcium/calmodulin-dependent 3',5'-cyclic nucleotide phosphodiesterase 1A (P54750 whole entry): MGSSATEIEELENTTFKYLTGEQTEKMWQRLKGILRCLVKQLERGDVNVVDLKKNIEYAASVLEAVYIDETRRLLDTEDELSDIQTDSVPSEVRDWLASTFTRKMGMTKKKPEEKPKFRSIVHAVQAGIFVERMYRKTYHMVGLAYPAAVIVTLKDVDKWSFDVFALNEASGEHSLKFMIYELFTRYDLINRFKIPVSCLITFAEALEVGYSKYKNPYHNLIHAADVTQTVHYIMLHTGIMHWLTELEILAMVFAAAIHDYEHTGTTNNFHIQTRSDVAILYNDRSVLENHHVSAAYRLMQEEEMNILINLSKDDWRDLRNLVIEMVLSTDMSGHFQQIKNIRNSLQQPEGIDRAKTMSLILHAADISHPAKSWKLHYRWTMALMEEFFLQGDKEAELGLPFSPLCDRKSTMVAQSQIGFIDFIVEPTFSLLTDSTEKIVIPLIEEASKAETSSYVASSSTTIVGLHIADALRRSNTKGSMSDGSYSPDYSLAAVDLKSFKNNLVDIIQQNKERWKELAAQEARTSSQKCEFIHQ
Sequence of High affinity cAMP-specific and IBMX-insensitive 3',5'-cyclic phosphodiesterase 8A (O60658 whole entry): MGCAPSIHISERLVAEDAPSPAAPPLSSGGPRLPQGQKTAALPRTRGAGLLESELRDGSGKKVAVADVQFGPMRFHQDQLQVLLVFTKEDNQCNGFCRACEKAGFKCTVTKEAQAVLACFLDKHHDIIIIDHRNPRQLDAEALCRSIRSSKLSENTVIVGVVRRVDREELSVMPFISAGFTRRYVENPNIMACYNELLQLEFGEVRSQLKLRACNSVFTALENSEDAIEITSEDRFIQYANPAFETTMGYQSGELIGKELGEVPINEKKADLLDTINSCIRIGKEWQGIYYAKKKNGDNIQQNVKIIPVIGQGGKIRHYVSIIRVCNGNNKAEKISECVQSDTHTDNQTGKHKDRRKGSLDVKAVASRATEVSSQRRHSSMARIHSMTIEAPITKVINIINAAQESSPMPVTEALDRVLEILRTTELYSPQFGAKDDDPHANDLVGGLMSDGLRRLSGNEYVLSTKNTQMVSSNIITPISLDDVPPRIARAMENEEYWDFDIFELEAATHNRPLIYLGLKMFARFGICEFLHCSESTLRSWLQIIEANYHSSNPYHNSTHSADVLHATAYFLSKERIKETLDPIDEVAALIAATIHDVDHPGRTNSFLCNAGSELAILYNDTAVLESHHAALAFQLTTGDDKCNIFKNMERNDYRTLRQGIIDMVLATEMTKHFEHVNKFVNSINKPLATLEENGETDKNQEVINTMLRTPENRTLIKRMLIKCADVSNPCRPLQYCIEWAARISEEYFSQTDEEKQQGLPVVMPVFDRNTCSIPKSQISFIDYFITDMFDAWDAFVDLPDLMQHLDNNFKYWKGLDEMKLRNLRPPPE
Sequence of High affinity 3',5'-cyclic-AMP phosphodiesterase 7A (Q13946 whole entry): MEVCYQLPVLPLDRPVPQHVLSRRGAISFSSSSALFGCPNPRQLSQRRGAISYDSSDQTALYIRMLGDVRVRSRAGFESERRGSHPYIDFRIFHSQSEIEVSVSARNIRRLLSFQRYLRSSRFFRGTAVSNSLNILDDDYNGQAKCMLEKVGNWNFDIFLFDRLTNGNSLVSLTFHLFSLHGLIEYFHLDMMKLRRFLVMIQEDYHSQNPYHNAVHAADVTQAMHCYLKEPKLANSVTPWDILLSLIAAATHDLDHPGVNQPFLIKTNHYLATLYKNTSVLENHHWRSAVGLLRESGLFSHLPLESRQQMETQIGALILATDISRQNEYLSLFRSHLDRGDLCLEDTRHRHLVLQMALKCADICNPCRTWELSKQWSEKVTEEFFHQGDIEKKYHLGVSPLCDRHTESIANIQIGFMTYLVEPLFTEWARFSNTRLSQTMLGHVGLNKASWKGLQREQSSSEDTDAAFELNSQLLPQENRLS

As for `COc1cc2c(cc1OC1CCCC1)C(=O)C(Cc1cccnc1)C2` (stereo not given), inhibition in data set [1] was half-maximal at 23 µM (IC50). Also, the inhibition is 26% in [2] and 34% in [3].
As for `COc1ccc(C2CNC(=O)C2)cc1OC1CCCC1` (stereo not given), the outcome in [4] was Active.
For `COc1cc2c(cc1OC1CCCC1)CC(CC1CCNCC1)C2=O` (stereo not given), the inhibition in data set [2] was 19%; in data set [3] it was less than 10%.
`COc1cc2c(cc1OCC1CC1)C(=O)C(CC1CCN(Cc3ccccc3)CC1)C2` (stereo not given) gave an IC50 in [5] of 45 nM. The molecule further registered an inhibition in data set [3] of less than 10%.
With `COc1cc2c(cc1OCCN1CCCCC1)C(=O)C(Cc1cccnc1)C2` (stereo not given), the IC50 in data set [6] was 36.9 µM; in data set [1], 1.88 µM; in data set [8], more than 50 µM; in [9] it was more than 50 µM; in data set [10], more than 50 µM; in data set [5], 280 nM. Besides, the IC50 in [13], in data set [14], in [18], in [20] and in data set [21] was more than 50 µM each time. Besides, the outcome in data set [7], in data set [16] and in [17] was Active. For the same molecule, the Ratio IC50 in data set [11] was found to be 19. For the same molecule, the Activity entry in data set [12] was “Non-Toxic”; in [15] it was “Dde”; in data set [19], “Non-Toxic”. The inhibition entry in data set [22] is “Active”.
`COc1cc2c(cc1OCC(C)C)C(=O)C(Cc1ccncc1)C2` (stereo not given): the results for the inhibition in [2] and in [3] were 14% and 34%, respectively.
For the molecule `COc1cc2c(cc1OCC(C)C)CC(Cc1ccncc1)C2=O` (stereo not given), the IC50 in [1] came to 4.2 µM; in [5], 64300 nM. In addition, in data set [2], the inhibition was 15%.
As for `COc1cc2c(cc1OC1CCCC1)CC(Cc1ccncc1)C2=O` (stereo not given), the results for the IC50 in data set [1] and in data set [5] were 5.3 µM and 30500 nM, respectively. The molecule further came in with an inhibition in [2] of 27%.
In data set [5], `COc1cc2c(cc1OCCN1CCCC1)C(=O)C(Cc1ccncc1)C2` (stereo not given) gave an IC50 of 1080 nM. For the same molecule, in [3], the inhibition is less than 10%.
In data set [23], `COc1ccc(CC2Cc3cc(OC)c(OCCN4CCCC4)cc3C2=O)cc1` (stereo not given) returned an inhibition of 20%.
In the case of `COc1cc2c(cc1OCC(C)C)CC(CC1CCN(Cc3ccccc3)CC1)C2=O` (stereo not given), the IC50 in data set [5] amounted to 210 nM. The inhibition in data set [3] was less than 10%.
With `COc1cc2c(cc1OC1CCCC1)C(=O)C(CC1CCNCC1)C2` (stereo not given), the inhibition is 11% in [2] and less than 10% in data set [3].
On to `COc1cc2c(cc1OC1CCCC1)C(=O)/C(=C/c1cccnc1)C2`, for which the results for the IC50 in data set [1] and in [5] were 4.1 µM and 8400 nM, respectively. Further, the inhibition in [2] turned out to be 56%.
Take `COc1cc2c(cc1OCC(C)C)C(=O)C(CC1CCN(Cc3ccccc3)CC1)C2` (stereo not given): half-maximal inhibition in data set [5] (IC50) was put at 500 nM. The same molecule registered an inhibition in [3] of less than 10%.
`COc1cc2c(cc1OCCN1CCCCC1)C(=O)C(Cc1ccncc1)C2` (stereo not given): the IC50 in data set [1] came out at 16.4 µM; in data set [5] it was 70 nM.
`COc1cc2c(cc1OC1CCCC1)CC(CC1CCN(Cc3ccccc3)CC1)C2=O` (stereo not given) returned an IC50 in data set [5] of 210 nM. In data set [3], this molecule displayed an inhibition of less than 10%.
Consider `COc1cc2c(cc1OC)C(=O)C(CC1CCN(Cc3ccccc3)CC1)C2` (stereo not given) [DONEPEZIL], for which the outcome in [7], in [24], in data set [16] and in data set [4] was Active. In data set [1], this molecule had an IC50 of 36 µM. Further, in [22], the inhibition entry was “Active”.
`COc1cc2c(cc1OC1CCCC1)C(=O)C(CC1CCN(Cc3ccccc3)CC1)C2` (stereo not given) registered an IC50 in [5] of 58 nM. Also, the inhibition in [3] is less than 10%.
For the molecule `COc1cc2c(cc1OCC1CC1)CC(Cc1ccncc1)C2=O` (stereo not given), the inhibition came to 23% in [2] and 31% in data set [3].
As to `COc1cc2c(cc1OCC1CC1)CC(CC1CCN(Cc3ccccc3)CC1)C2=O` (stereo not given), it took 210 nM to reach half-maximal inhibition in data set [5] (IC50). For the same molecule, in data set [3], the inhibition was less than 10%.
For the molecule `COc1cc2c(cc1OC1CCCC1)C(=O)C(Cc1ccccn1)C2` (stereo not given), the IC50 in data set [1] amounted to 8.7 µM; in data set [5] it was 38300 nM. The same molecule came in with an inhibition in data set [2] of 11%.
`COc1ccc(CC2Cc3cc(OC)c(OCCN4CCCCC4)cc3C2=O)cc1` (stereo not given) showed an IC50 in data set [5] of 810 nM. In [3], this molecule had an inhibition of less than 10%.
Take `COc1cc2c(cc1OCC(C)C)CC(CC1CCNCC1)C2=O` (stereo not given): the inhibition in [2] and in [3] was less than 10% in each case.
As for `COc1cc2c(cc1OC1CCCC1)C(=O)/C(=C/c1ccncc1)C2`, the IC50 in data set [1] was 3.1 µM; in [5], 11400 nM. The molecule also returned an inhibition in data set [2] of 51%.
Consider `COc1cc2c(cc1OC1CCCC1)C(=O)C(Cc1ccncc1)C2` (stereo not given), for which the IC50 came to 3.4 µM in [1] and 55900 nM in data set [5]. The inhibition in data set [2] came out at 15%.
Regarding `COc1cc2c(cc1OC1CCCC1)C/C(=C\c1cccnc1)C2=O`, the inhibition in data set [2] was 50%; in [3], less than 10%. Moreover, the IC50 in data set [5] was 11700 nM.
As for `COc1cc2c(cc1OCC1CC1)C(=O)C(CC1CCNCC1)C2` (stereo not given), the figures for the inhibition in [2] and in data set [3] were 21% and less than 10%, respectively.
For `COc1cc2c(cc1OCC(C)C)C(=O)C(CC1CCNCC1)C2` (stereo not given), the inhibition in data set [2] was 12%; in data set [3], less than 10%.
In the case of `COc1cc2c(cc1OC1CCCC1)C(=O)/C(=C/c1ccccn1)C2`, the inhibition was 39% in data set [2] and 11% in data set [3].
For `COc1cc2c(cc1OCC1CC1)CC(CC1CCNCC1)C2=O` (stereo not given), the inhibition in data set [2] is 25%; in data set [3] it was less than 10%.
`COc1cc2c(cc1OCC1CC1)C(=O)C(Cc1ccncc1)C2` (stereo not given): the IC50 in data set [1] came out at 6.3 µM; in [5], 35900 nM. This molecule also had an inhibition in data set [2] of 25%.
